Test results: patent publication US11236086B2, “Substituted pyrrolopyridines as inhibitors of activin receptor-like kinase” (BLUEPRINT MEDICINES CORPORATION, priority 2017, dated 2022)

Columns and labels:
[1] = target: T1, ALK2R206H (mutant ALK2, N-terminally tagged with GST) (Homo sapiens, UniProt Q04771, R206H); test: ALK binding assay (LANTHASCREEN TR-FRET competitive binding, displacement of Kinase Tracer 178); conditions: read-out: Binding Assay (IC50 class)
T1 construct: purchased Carna Bioscience or ThermoFisher 09-148 or PV6232
T1 sequence (Q04771 21-509 R206H): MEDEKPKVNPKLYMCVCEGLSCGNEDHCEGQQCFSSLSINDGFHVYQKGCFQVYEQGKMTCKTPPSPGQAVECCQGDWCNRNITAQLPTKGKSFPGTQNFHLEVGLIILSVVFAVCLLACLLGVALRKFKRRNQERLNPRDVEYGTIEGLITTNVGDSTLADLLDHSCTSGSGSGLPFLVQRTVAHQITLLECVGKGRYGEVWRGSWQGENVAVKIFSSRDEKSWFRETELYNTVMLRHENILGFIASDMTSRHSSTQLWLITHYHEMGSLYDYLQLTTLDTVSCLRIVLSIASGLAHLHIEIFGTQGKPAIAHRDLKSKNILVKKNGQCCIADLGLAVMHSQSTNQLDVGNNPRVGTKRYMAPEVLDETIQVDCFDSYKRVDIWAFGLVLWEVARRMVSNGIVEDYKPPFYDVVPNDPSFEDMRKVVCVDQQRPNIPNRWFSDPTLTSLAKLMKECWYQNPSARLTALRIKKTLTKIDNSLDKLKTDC
How it was run: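 Competitive displacement of Kinase Tracer 178 (50 nM) from N-terminally GST-tagged mutant ALK2 R206H (2-5 nM) by compound, detected by TR-FRET with Eu-anti-GST antibody (4-10 nM). 30 min room temperature incubation, 1% DMSO final; normalized signal fitted to 4-parameter log dose response for IC50.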

human ALK2 R206H = target: T2, human ALK2 R206H (Homo sapiens, UniProt Q04771, R206H); test: Cell-based ALK2-R206H cell activity assay (Smad1-Ser463/Ser465 phosphorylation by AlphaLISA in HEK293-ALK2-R206H cells); conditions: phospho-Smad1 AlphaLISA, read-out: Cell Line (Cell Assay, IC50 class)
T2 construct: expressed in transfected cells; host or cells: HEK293 (ATCC CRL1573), lentivirus transduction, blasticidin selection
T2 sequence (Q04771 21-509 R206H): T1 sequence (Q04771 21-509 R206H)
How it was run: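 IC50 comes from a 10-point curve, scaled between DMSO and 1 μM LDN193189 controls, of lysate phospho-Smad1 (Ser463/465) measured by AlphaLISA. Compounds (top 10 μM or 1 μM, 3-fold steps, duplicates) were given 2-3 h to serum-starved HEK293 cells that stably express FLAG-tagged human ALK2 R206H.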

| SMILES | IC50 [1] | IC50 (human ALK2 R206H) |
| --- | --- | --- |
| O=C(OC1COC1)N1CCN(c2ccnc3[nH]c(-c4csc(C(F)(F)F)n4)cc23)CC1 [Compound 408] | ≤ 10 nM | 100 to 500 nM |
| Cc1nc(-c2[nH]c3nccc(N4CCN(C(=O)OC5CC(F)(F)C5)CC4)c3c2C#N)cn1C [Compound 412] | ≤ 10 nM | ≤ 100 nM |
| Cc1nc(-c2[nH]c3nccc(N4CCN(C(=O)OC5CCC5(F)F)CC4)c3c2C#N)cn1C (stereo not drawn) [Compound 413] | ≤ 10 nM | ≤ 100 nM |
| Cn1cc(-c2[nH]c3nccc(N4CCN(C(=O)OC5CS(=O)(=O)C5)CC4)c3c2C#N)cn1 [Compound 414] | ≤ 10 nM | ≤ 100 nM |
| CCNC(=O)c1nc(-c2cc3c(N4CCN(C(=O)OC5COC5)CC4)ccnc3[nH]2)cs1 [Compound 415] | ≤ 10 nM | 100 to 500 nM |
| O=C(O[C@H]1C[C@H](F)C1)N1CCN(c2ccnc3[nH]c(-c4nc5c(s4)COCC5)cc23)CC1 [Compound 416] | ≤ 10 nM | ≤ 100 nM |
| O=C(OC1COC1)N1CCN(c2ccnc3[nH]c(-c4nc5c(s4)CSCC5)cc23)CC1 [Compound 417] | ≤ 10 nM | ≤ 100 nM |
| CCN1CCN(c2ccc(-c3cc4c(N5CCN(C(=O)C6CC6)CC5)ccnc4[nH]3)cc2)CC1 [Compound 418] | ≤ 10 nM | ≤ 100 nM |
| O=C(COc1ccc(-c2cc3c(N4CCN(C(=O)C5CC5)CC4)ccnc3[nH]2)cc1)N1CCC1 [Compound 420] | ≤ 10 nM | 100 to 500 nM |
| O=C(C1CC1)N1CCN(c2ccnc3[nH]c(-c4ccc(OCCN5CCCC5)cc4)cc23)CC1 [Compound 421] | ≤ 10 nM | ≤ 100 nM |
| Cc1nn(C(C)C)cc1-c1cc2c(N3CCN(C(=O)[C@H]4CC[C@H](C#N)CC4)CC3)ccnc2[nH]1 [Compound 422] | ≤ 10 nM | ≤ 100 nM |
| Cc1c(-c2cc3c(N4CCN(C(=O)[C@H]5CC[C@H](C#N)CC5)CC4)ccnc3[nH]2)cnn1C(C)C [Compound 423] | ≤ 10 nM | ≤ 100 nM |
| CCN1CCN(c2ccc(-c3cc4c(N5CCN(C(=O)C6CC6)CC5)ccnc4[nH]3)nc2)CC1 [Compound 424] | ≤ 10 nM | ≤ 100 nM |
| O=C(OC1COC1)N1CCN(c2ccnc3[nH]c(-c4ccc(C5=CCOCC5)cc4)cc23)CC1 [Compound 425] | ≤ 10 nM | ≤ 100 nM |
| Cn1cc(-c2[nH]c3nccc(N4CCN(C(=O)OC5COC5)CC4)c3c2Br)cn1 [Compound 426] | ≤ 10 nM | 100 to 500 nM |
| O=C(OC1COC1)N1CCN(c2ccnc3[nH]c(-c4ccc(C5(O)CCCC5)cc4)cc23)CC1 [Compound 427] | ≤ 10 nM | ≤ 100 nM |
| O=C(OC1COC1)N1CCN(c2ccnc3[nH]c(-c4ccc([C@@]5(O)CCOC5)cc4)cc23)CC1 [Compound 428] | ≤ 10 nM | ≤ 100 nM |
| O=C(OC1COC1)N1CCN(c2ccnc3[nH]c(-c4ccc([C@]5(O)CCOC5)cc4)cc23)CC1 [Compound 429] | ≤ 10 nM | ≤ 100 nM |
| O=C(C1CC1)N1CCN(c2ccnc3[nH]c(-c4ccc(C5CCNCC5(F)F)cc4)cc23)CC1 (stereo not drawn) [Compound 431] | ≤ 10 nM | ≤ 100 nM |
| Cc1nc(-c2cc3c(N4CCN(C(=O)O[C@H]5CC(F)(F)C5(F)F)CC4)ccnc3[nH]2)cn1C [Compound 432] | ≤ 10 nM | ≤ 100 nM |
| Cc1nc(-c2cc3c(N4CCN(C(=O)O[C@@H]5CC(F)(F)C5(F)F)CC4)ccnc3[nH]2)cn1C [Compound 433] | ≤ 10 nM | ≤ 100 nM |
| N#Cc1c(-c2nc3c(s2)COCC3)[nH]c2nccc(N3CCN(C(=O)OC4COC4)CC3)c12 [Compound 434] | ≤ 10 nM | ≤ 100 nM |
| CCS(=O)(=O)c1ccc(-c2cc3c(N4CCN(C(=O)OC5COC5)CC4)ccnc3[nH]2)cc1 [Compound 436] | ≤ 10 nM | ≤ 100 nM |
| O=C(C1CC1)N1CCN(c2ccnc3[nH]c(-c4ccc(N5CCNC6(COC6)C5)cc4)cc23)CC1 [Compound 437] | ≤ 10 nM | ≤ 100 nM |
| CC(C)N1CCN(c2ccc(-c3cc4c(N5CCN(C(=O)C6CC6)CC5)ccnc4[nH]3)cc2)CC1 [Compound 438] | ≤ 10 nM | ≤ 100 nM |
| CCN1CCN(c2ccc(-c3cc4c(N5CCN(C(=O)C6CCC6)CC5)ccnc4[nH]3)cc2)CC1 [Compound 439] | ≤ 10 nM | ≤ 100 nM |

| SMILES | IC50 [1] | IC50 (human ALK2 R206H) |
| --- | --- | --- |
| N#Cc1c(-c2nc3c(s2)COCC3)[nH]c2nccc(N3CCN(C(=O)OCC(F)F)CC3)c12 [Compound 440] | ≤ 10 nM | ≤ 100 nM |
| CCOC(=O)N1CCN(c2ccnc3[nH]c(-c4ccc(C5(O)CCOCC5)cc4C#N)cc23)CC1 [Compound 441] | ≤ 10 nM | ≤ 100 nM |
| CCN1CCC(c2ccc(-c3cc4c(N5CCN(C(=O)C6CC6)CC5)ccnc4[nH]3)cc2)C(F)C1 (stereo not drawn) [Compound 442] | ≤ 10 nM | ≤ 100 nM |
| CCN1CCN(c2ccc(-c3cc4c(N5CCN(C(=O)C6CC6)CC5)ccnc4[nH]3)c(F)c2)CC1 [Compound 444] | ≤ 10 nM | ≤ 100 nM |
| O=C(OC1COC1)N1CCN(c2ccnc3[nH]c(-c4ccc(C5(O)CCOCC5)cc4)cc23)CC1 [Compound 445] | ≤ 10 nM | ≤ 100 nM |
| O=C(OC1COC1)N1CCN(c2ccnc3[nH]c(-c4ccc(C5(O)CCOCC5)cn4)cc23)CC1 [Compound 446] | ≤ 10 nM | ≤ 100 nM |
| CC(=O)N1CCc2nc(-c3cc4c(N5CCN(C(=O)OC6COC6)CC5)ccnc4[nH]3)sc2C1 [Compound 447] | ≤ 10 nM | ≤ 100 nM |
| O=C(OCC(F)F)N1CCN(c2ccnc3[nH]c(-c4nc5c(s4)COCC5)c(Cl)c23)CC1 [Compound 449] | ≤ 10 nM | ≤ 100 nM |
| O=C(OC1COC1)N1CCN(c2ccnc3[nH]c(-c4csc(N5CCC(O)CC5)n4)cc23)CC1 [Compound 450] | ≤ 10 nM | 100 to 500 nM |
| O=C(C1CC1)N1CCN(c2ccnc3[nH]c(-c4ccc(C5CCN(C6COC6)CC5)cc4)cc23)CC1 [Compound 451] | ≤ 10 nM | ≤ 100 nM |
| O=C(C1CC1)N1CCN(c2ccnc3[nH]c(-c4ccc(N5CCN(C6COC6)CC5)cc4)cc23)CC1 [Compound 452] | ≤ 10 nM | ≤ 100 nM |
| O=C(C1CC1)N1CCN(c2ccnc3[nH]c(-c4ccc(N5CCN6CCOCC6C5)cc4)cc23)CC1 (stereo not drawn) [Compound 453] | ≤ 10 nM | ≤ 100 nM |
| CCOC(=O)N1CCN(c2ccnc3[nH]c(-c4ccc(C5(OC)CCOCC5)cc4C#N)cc23)CC1 [Compound 455] | ≤ 10 nM | ≤ 100 nM |
| CCN1CCN(c2ccc(-c3cc4c(N5CCN(C(=O)C6CC6)CC5)ccnc4[nH]3)c(Cl)c2)CC1 [Compound 456] | ≤ 10 nM | ≤ 100 nM |
| CCN1CC[C@@H](c2ccc(-c3cc4c(N5CCN(C(=O)C6CC6)CC5)ccnc4[nH]3)cc2)C(F)(F)C1 [Compound 458] | ≤ 10 nM | ≤ 100 nM |
| CCN1CC[C@H](c2ccc(-c3cc4c(N5CCN(C(=O)C6CC6)CC5)ccnc4[nH]3)cc2)C(F)(F)C1 [Compound 459] | ≤ 10 nM | ≤ 100 nM |
| CCN1CCC(c2ccc(-c3cc4c(N5CCN(C(=O)C6CC6)CC5)ccnc4[nH]3)cc2)C(F)(F)C1 (stereo not drawn) [Compound 460] | ≤ 10 nM | ≤ 100 nM |
| O=C(C1CC1)N1CCN(c2ccnc3[nH]c(-c4ccc(N5CCN(CC(F)F)CC5)cc4)cc23)CC1 [Compound 461] | ≤ 10 nM | 100 to 500 nM |
| O=C(O[C@H]1C[C@H](F)C1)N1CCN(c2ccnc3[nH]c(-c4ccc(C5(O)CCOCC5)cn4)cc23)CC1 [Compound 462] | ≤ 10 nM | ≤ 100 nM |
| CN1CCN(C(=O)COc2ccc(-c3cc4c(N5CCN(C(=O)C6CC6)CC5)ccnc4[nH]3)cc2)CC1 [Compound 464] | ≤ 10 nM | 100 to 500 nM |
| CC(C)N1CCC[C@@H](c2ccc(-c3cc4c(N5CCN(C(=O)OC6COC6)CC5)ccnc4[nH]3)cc2)C1 [Compound 466] | ≤ 10 nM | ≤ 100 nM |
| CC(C)N1CCC(c2ccc(-c3cc4c(N5CCN(C(=O)OC6COC6)CC5)ccnc4[nH]3)cc2)CC1 [Compound 467] | ≤ 10 nM | ≤ 100 nM |
| CC(C)N1CCC[C@H](c2ccc(-c3cc4c(N5CCN(C(=O)OC6COC6)CC5)ccnc4[nH]3)cc2)C1 [Compound 468] | ≤ 10 nM | ≤ 100 nM |
| CC(C)N1CCC(c2ccc(-c3cc4c(N5CCN(C(=O)OC6COC6)CC5)ccnc4[nH]3)nc2)CC1 [Compound 469] | ≤ 10 nM | ≤ 100 nM |
| CC(=O)N1CCc2sc(-c3[nH]c4nccc(N5CCN(C(=O)OC6COC6)CC5)c4c3C#N)nc2C1 [Compound 470] | ≤ 10 nM | ≤ 100 nM |
